Reference: US10669275B2 (priority 2015, dated 2020)
Each block holds one compound with its values, some of them ahead of it.

Tests used:
[1] = at about pH 8; cited from earlier work
[2] = wettability by contact angle measurement; assay type: physicochemical; conditions: water drops (2 μL) on pellet pressed at 2 t*cm^−2
Experimental: The wettability of the below compounds was determined by contact angle measurement. For this purpose, the substances were pressed (2 t*cm^−2) to a pellet. On each pellet were placed three water drops (2 μL) on three individual measurement points and the contact angle was measured with the apparatus OCA40 (DataPhysics Instruments) on two sides of the drop.

[3] = 3 tons pressure 1 min; strong grinding dry or with a drop of water, ethanol or isopropanol; 100° C. for 30 minutes; 1 week 100% relative humidity at room temperature
Experimental: The analysis of was performed on ARL (SCINTAG) powder X-Ray diffractometer model X'TRA equipped with a solid stage detector.
Scanning parameters: range: 2-40 degrees two-theta; scan mode: continuous scan; step size: 0.05°, and a rate of 3 deg/min.

[4] = twelve weeks at 40° C. and 75% relative humidity

Structure (SMILES): C=CC(=O)N1CCC[C@@H](n2nc(-c3ccc(Oc4ccccc4)cc3)c3c(N)ncnc32)C1 [Ibrutinib free base form A, 1-[(3R)-3[4-Amino-3-(4-phenoxyphenyl)-1H-pyrazolo[3,4-d]pyrimidin-1-yl]piperidin-1-yl]prop-2-en-lone]
observed aqueous solubility [1]: about 0.013 mg/ml

contact angle θ [2]: incapable of measurement*
Structure (SMILES): C=CC(=O)N1CCC[C@@H](n2nc(-c3ccc(Oc4ccccc4)cc3)c3c(N)ncnc32)C1.C=CC(=O)N1CCC[C@@H](n2nc(-c3ccc(Oc4ccccc4)cc3)c3c(N)ncnc32)C1.O=C(O)CCC(=O)O [ibrutinib:succinic acid]

Structure (SMILES): C=CC(=O)N1CCCC(n2nc(-c3ccc(Oc4ccccc4)cc3)c3c(N)ncnc32)C1.C=CC(=O)N1CCCC(n2nc(-c3ccc(Oc4ccccc4)cc3)c3c(N)ncnc32)C1.O=C(O)C=CC(=O)O (stereo not shown) [ibrutinib:fumaric acid]
XRPD pattern after stress-tests [3]: No change was observed in the XRPD pattern

solid form after storage (XRPD, FIG. 15) [4]: transformed into ibrutinib Form A
Structure (SMILES): C=CC(=O)N1CCC[C@@H](n2nc(-c3ccc(Oc4ccccc4)cc3)c3c(N)ncnc32)C1 [Ibrutinib Form E, 1-[(3R)-3[4-Amino-3-(4-phenoxyphenyl)-1H-pyrazolo[3,4-d]pyrimidin-1-yl]piperidin-1-yl]prop-2-en-lone]
